Key:
[1] = Formation of sugammadex photodegradant (disulfide, printed ジスルフィド体) on light irradiation (Example 2, HPLC); assay type: physicochemical; conditions: after light irradiation, n=3
[2] = Photostability of sugammadex sodium solution in glass containers with or without light-cutting film (Example 1, HPLC); assay type: physicochemical; conditions: for total amount of substances other than sugammadex: n=3
[3] = after light irradiation (1,200,000 lux·h, 280 W·h/m2), UVcut 500 film compared with UVcut 400 film
[4] = after light irradiation (1,200,000 lux·h, 280 W·h/m2), film-wrapped samples (UVcut 400 or UVcut 500), compared with no film wrapping

SMILES: O=C([O-])CCSC[C@H]1O[C@@H]2O[C@H]3[C@H](O)[C@@H](O)[C@@H](O[C@H]4[C@H](O)[C@@H](O)[C@@H](O[C@H]5[C@H](O)[C@@H](O)[C@@H](O[C@H]6[C@H](O)[C@@H](O)[C@@H](O[C@H]7[C@H](O)[C@@H](O)[C@@H](O[C@H]8[C@H](O)[C@@H](O)[C@@H](O[C@H]9[C@H](O)[C@@H](O)[C@@H](O[C@H]1[C@H](O)[C@H]2O)O[C@@H]9CSCCC(=O)[O-])O[C@@H]8CSCCC(=O)[O-])O[C@@H]7CSCCC(=O)[O-])O[C@@H]6CSCCC(=O)[O-])O[C@@H]5CSCCC(=O)[O-])O[C@@H]4CSCCC(=O)[O-])O[C@@H]3CSCCC(=O)[O-].[Na+].[Na+].[Na+].[Na+].[Na+].[Na+].[Na+].[Na+] [スガマデクス, octakis(6-S-(2-carboxyethyl)-6-thio)cyclomaltooctaose octasodium salt]
- formation of sugammadex disulfoxide (スガマデクスのジスルフィド体 in the source) ([1]; light up to 400 nm cut, relative to sample without film wrapping): フィルム包装なしのサンプルの半分程度
- formation of sugammadex disulfoxide (スガマデクスのジスルフィド体 in the source) ([1]; light up to 500 nm cut): ほとんど生成されていなかった
- effect of suppressing increase of photodegradation products [2, 3]: 顕著に高かった
- purity of sugammadex [2, 3]: 純度が高く
- increase in total amount of substances other than sugammadex [2, 4]: 増大が抑えられており
- residual rate of sugammadex [2, 4]: 残存率が高かった
- total amount of substances other than sugammadex ([2]; after light irradiation (1,200,000 lux·h, 280 W·h/m2), no film wrapping): 5.12%
- total amount of substances other than sugammadex ([2]; before light irradiation, no film wrapping, 100 mg/mL aqueous solution, pH 7-8): 2.14%
- photodegradation of sugammadex ([2]; chromatograms before vs after light irradiation, no film wrapping): 光照射により分解されたことが確認された

From JP2022155560A, “スガマデクスの光分解抑制方法” (Fuji Pharma Co Ltd, priority 2021, dated 2022)
